Reference: US20220142955A1, “METHODS OF TREATING ORGANIC ACIDEMIAS” (HemoShear Therapeutics, Inc., priority 2019, published 2022)
Read-outs that look alike come from different tables or passages of the source.

Tested on: primary hepatocytes of methylmalonic acidemia patients
Test: Propionyl-CoA and methylmalonyl-CoA from various sources in MMA primary hepatocytes (Examples 4, 5)
Format: cell-based, human
Conditions: Homo sapiens, Hepatocyte
Method: (§1) Primary hepatocytes isolated from livers of methylmalonic acidemia patients are treated with increasing doses of compound 1 (0, 1, 3, 10, 30, 100, 300, 1000 μM) for 30 minutes. […] At the end of the challenge period, media is removed and the cells are lysed with 70% MCCN and 0.1% TFA containing 100 μM of ethymalonyl-CoA as an internal standard and harvested. Cell lysates are processed for HTMS/MS analysis.
as §1, with “compound 5” for “compound 1”, “(0, 0.1, 0.3,” for “(0,”, “30, 100” for “30, 100, 300, 1000”, “30 min.” for “30 minutes.”, “70% MeCN” for “70% MCCN”

**Q.** Which results are given for CCC(C)(C)C(=O)O [Compound 5, 2,2-dimethybutanoic acid]?
**A.** EC50 (100 μM 13C-heptanoate, read-out: concentration of methylmalonyl-CoA EC50): 20 nM; EC50 (100 μM 13C-heptanoate, read-out: concentration of propionyl-CoA EC50): 3840 nM; EC50 (1 mM 13C-KIVA, read-out: concentration of methylmalonyl-CoA EC50): 1170 nM; EC50 (1 mM 13C-KIVA, read-out: concentration of propionyl-CoA EC50): 930 nM; EC50 (3 mM 13C-ILE, read-out: concentration of methylmalonyl-CoA EC50): 1380 nM; EC50 (3 mM 13C-ILE, read-out: concentration of propionyl-CoA EC50): 2040 nM
